Source: US20250084041A1, “ANTIMICROBIAL COMPOUNDS AND METHODS” (Curza Global, LLC, priority 2021, published 2025)
Where a name gives a salt, the structure may show the parent alone. Read-outs that look alike come from different tables or passages of the source.

Experiments:
P. aeruginosa (Pa) = assay: Broth microdilution MIC, P. aeruginosa; format: cell-based; conditions: for MIC: Pseudomonas aeruginosa, read-out: Pa + bicarb 25 (MIC)
Procedure, shortened: (§1)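 CLSI broth microdilution (M07-A9, slightly modified): two-fold serial dilutions in CAMHB, CAMHB plus 25 mM sodium bicarbonate, or CAMHB with 0-50% heat-inactivated human serum, 8 dilutions in triplicate. Inoculum 5×10^4 CFU/well from 0.5 McFarland cultures grown at 35±2° C.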

[1] = biological target: Rabbit Reticulocyte Lysate; assay: Rabbit Reticulocyte Lysate: inhibition of eukaryotic protein synthesis (luciferase); format: biochemical; conditions: 30° C. 90 minutes, read-out: Retic. IC50
Procedure, shortened: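 Nuclease-treated rabbit reticulocyte lysate translating luciferase control RNA with complete amino acids; compounds in 8-point 2-fold dilutions, 90 min at 30° C. Luminescence read after luciferase reagent; % inhibition versus water (no-inhibitor) control, no-RNA wells as background.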

E. coli (Ec) = assay: Broth microdilution MIC, E. coli; format: cell-based; conditions: for MIC: Escherichia coli, read-out: E. coli + bicarb 25 (MIC)
Procedure, shortened: as §1

E. coli S30 extract = assay: E. coli S30 extract: inhibition of bacterial protein synthesis (luciferase); format: biochemical; conditions: 37° C. 1 hour
Procedure, shortened: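 Coupled transcription-translation in E. coli S30 extract, programmed with pBESTluc plasmid, was run with 8-point 2-fold compound dilutions for 1 h at 37 °C. After a cold stop, luciferase luminescence was read and percent inhibition calculated against no-inhibitor controls.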

E. faecalis (Ef) = assay: Broth microdilution MIC, E. faecalis; format: cell-based; conditions: for MIC: Enterococcus faecalis, read-out: Ef + bicarb 25 (MIC)
Procedure, shortened: as §1

S. aureus (Sa) = assay: Broth microdilution MIC, S. aureus; format: cell-based; conditions: for MIC: Staphylococcus aureus, read-out: Sa + bicarb 25 (MIC)
Procedure, shortened: as §1

A. baumannii (Ab) = assay: Broth microdilution MIC, A. baumannii; format: cell-based; conditions: for MIC: Acinetobacter baumannii, read-out: Ab + bicarb 25 (MIC)
Procedure, shortened: as §1

[2] = P. aeruginosa, CAMHB supplemented with sodium bicarbonate 25 mM
[3] = E. coli, CAMHB supplemented with sodium bicarbonate 25 mM
[4] = S. aureus, CAMHB supplemented with sodium bicarbonate 25 mM
[5] = E. faecalis, CAMHB supplemented with sodium bicarbonate 25 mM
[6] = A. baumannii, CAMHB supplemented with sodium bicarbonate 25 mM

SMILES | Pa + bicarb 25 (MIC) (P. aeruginosa (Pa); [2]) | IC50 [1] | E. coli + bicarb 25 (MIC) (E. coli (Ec); [3]) | IC50 (E. coli S30 extract; hydrochloride salt) | Ef + bicarb 25 (MIC) (E. faecalis (Ef); E. faecalis, CAMHB supplemented with sodium bicarbonate 25 mM, hydrochloride salt) | Sa + bicarb 25 (MIC) (S. aureus (Sa); [4]) | Ab + bicarb 25 (MIC) (A. baumannii (Ab); A. baumannii, CAMHB supplemented with sodium bicarbonate 25 mM, hydrochloride salt) | MIC (P. aeruginosa (Pa); [2]) | MIC (E. coli (Ec); [3]) | IC50 (E. coli S30 extract) | MIC (E. faecalis (Ef); [5]) | MIC (S. aureus (Sa); [4]) | MIC (A. baumannii (Ab); [6]) | MIC (P. aeruginosa (Pa)) | MIC (E. coli (Ec)) | MIC (E. faecalis (Ef)) | MIC (S. aureus (Sa)) | MIC (A. baumannii (Ab))
CC(C)(N)C(=O)N1CCN(C(=O)Nc2ccn(C3CCC(CN4C[C@@H]5[C@@H](N)[C@@H]5C4)CC3)c(=O)n2)CC1 (stereo partly drawn) [Compound 7, 4-(2-Amino-2-methylpropanoyl)-N-(1-(trans-4-((exo-6-amino-3-azabicyclo[3.1.0]hexan-3-yl)methyl)cyclohexyl)-2-oxo-1,2-dihydropyrimidin-4-yl)piperazine-1-carboxamide hydrochloride salt] | + (An MIC value (μg/mL) that is 32 μg/mL or greater) | ≥ 1 µM | +++ (An MIC value (μg/mL) that is less than 8 μg/mL) | < 0.5 µM | +++ (An MIC value (μg/mL) that is less than 8 μg/mL) | +++ (An MIC value (μg/mL) that is less than 8 μg/mL) | ++ (An MIC value (μg/mL) that is 8 μg/mL or greater and less than 32 μg/mL) |  |  |  |  |  |  |  |  |  |  | 
CC(C)(N)C(=O)N1CCN(C(=O)Nc2ccn(C3CCC(CN4C[C@@H]5[C@@H](CN)[C@@H]5C4)CC3)c(=O)n2)CC1 (stereo partly drawn) [Compound 8, 4-(2-Amino-2-methylpropanoyl)-N-(1-(4-((exo-6-(aminomethyl)-3-azabicyclo[3.1.0]hexan-3-yl)methyl)cyclohexyl)-2-oxo-1,2-dihydropyrimidin-4-yl)piperazine-1-carboxamide hydrochloride salt] |  | ≥ 1 µM |  |  |  |  |  | 8 to 32 µg/mL | < 8 µg/mL | < 0.5 µM | < 8 µg/mL | < 8 µg/mL | > 32 µg/mL |  |  |  |  | 
CC(C)(N)C(=O)N1CCN(C(=O)Nc2ccn(C3CCC(CN4CCCC(N)CC4)CC3)c(=O)n2)CC1 (centres unmarked) [Compound 9, 4-(2-Amino-2-methylpropanoyl)-N-(1-(4-((4-aminoazepan-1-yl)methyl)cyclohexyl)-2-oxo-1,2-dihydropyrimidin-4-yl)piperazine-1-carboxamide hydrochloride salt] |  | ≥ 1 µM |  |  |  |  |  |  |  | < 0.5 µM |  |  |  | > 32 µg/mL | < 8 µg/mL | < 8 µg/mL | < 8 µg/mL | 8 to 32 µg/mL
CC(C)(N)C(=O)N1CCN(C(=O)Nc2ccn(C3=CCC(CN4C[C@@H]5[C@@H](N)[C@@H]5C4)CC3)c(=O)n2)CC1 (stereo partly drawn) [Compound 12, 4-(2-Amino-2-methylpropanoyl)-N-(1-(4-(((1R,5S,6s)-6-amino-3-azabicyclo[3.1.0]hexan-3-yl)methyl)cyclohex-1-en-1-yl)-2-oxo-1,2-dihydropyrimidin-4-yl)piperazine-1-carboxamide hydrochloride salt] |  | ≥ 1 µM |  |  |  |  |  | > 32 µg/mL | < 8 µg/mL | < 0.5 µM | < 8 µg/mL | < 8 µg/mL | 8 to 32 µg/mL |  |  |  |  | 
CC(C)(N)C(=O)N1CCN(C(=O)Nc2ccn(C3CCC(CN[C@H]4CC[C@H](N)C4)CC3)c(=O)n2)CC1 (stereo partly drawn) [Compound 13, 4-(2-Amino-2-methylpropanoyl)-N-(1-(4-((((1S,3S)-3-aminocyclopentyl)amino)methyl)cyclohexyl)-2-oxo-1,2-dihydropyrimidin-4-yl)piperazine-1-carboxamide hydrochloride salt] |  | ≥ 1 µM |  |  |  |  |  |  |  | < 0.5 µM |  |  |  | > 32 µg/mL | < 8 µg/mL | 8 to 32 µg/mL | < 8 µg/mL | > 32 µg/mL
CC(C)(N)C(=O)N1CCN(C(=O)Nc2ccn(C3CCC(CN4CC(CN)C4)CC3)c(=O)n2)CC1 (centres unmarked) [Compound 14, 4-(2-Amino-2-methylpropanoyl)-N-(1-(4-((3-(aminomethyl)azetidin-1-yl)methyl)cyclohexyl)-2-oxo-1,2-dihydropyrimidin-4-yl)piperazine-1-carboxamide hydrochloride salt] |  | ≥ 1 µM |  |  |  |  |  |  |  | < 0.5 µM |  |  |  | > 32 µg/mL | < 8 µg/mL | 8 to 32 µg/mL | < 8 µg/mL | > 32 µg/mL
CC(C)(N)C(=O)N1CCN(C(=O)Nc2ccn(C3CCC(CN4CCC5(CC4)CC(N)C5)CC3)c(=O)n2)CC1 (centres unmarked) [Compound 16, 4-(2-Amino-2-methylpropanoyl)-N-(1-(4-((2-amino-7-azaspiro[3.5]nonan-7-yl)methyl)cyclohexyl)-2-oxo-1,2-dihydropyrimidin-4-yl)piperazine-1-carboxamide hydrochloride salt] |  | ≥ 1 µM |  |  |  |  |  |  |  | < 0.5 µM |  |  |  | 8 to 32 µg/mL | < 8 µg/mL | < 8 µg/mL | < 8 µg/mL | < 8 µg/mL
CC(C)(N)C(=O)N1CCN(C(=O)Nc2ccn([C@H]3CC[C@H](CN[C@H]4CC[C@@H](N)CC4)CC3)c(=O)n2)CC1 [Compound 17, 4-(2-Amino-2-methylpropanoyl)-N-(1-(trans-4-(((cis-4-aminocyclohexyl)amino)methyl)cyclohexyl)-2-oxo-1,2-dihydropyrimidin-4-yl)piperazine-1-carboxamide hydrochloride salt] |  | ≥ 1 µM |  |  |  |  |  |  |  | < 0.5 µM |  |  |  | > 32 µg/mL | < 8 µg/mL | < 8 µg/mL | < 8 µg/mL | > 32 µg/mL
CC(C)(N)C(=O)N1CCN(C(=O)Nc2ccn([C@H]3CC[C@H](CN[C@H]4CC[C@H](N)CC4)CC3)c(=O)n2)CC1 [Compound 18, 4-(2-Amino-2-methylpropanoyl)-N-(1-(trans-4-(((trans-4-aminocyclohexyl)amino)methyl)cyclohexyl)-2-oxo-1,2-dihydropyrimidin-4-yl)piperazine-1-carboxamide hydrochloride salt] |  | ≥ 1 µM |  |  |  |  |  |  |  | < 0.5 µM |  |  |  | > 32 µg/mL | < 8 µg/mL | 8 to 32 µg/mL | < 8 µg/mL | > 32 µg/mL
CN(C[C@H]1CC[C@H](n2ccc(NC(=O)N3CCN(C(=O)C(C)(C)N)CC3)nc2=O)CC1)[C@H]1CC[C@H](N)CC1 [Compound 19, 4-(2-Amino-2-methylpropanoyl)-N-(1-(trans-4-(((trans-4-aminocyclohexyl)(methyl)amino)methyl)cyclohexyl)-2-oxo-1,2-dihydropyrimidin-4-yl)piperazine-1-carboxamide hydrochloride salt] |  | ≥ 1 µM |  |  |  |  |  |  |  | < 0.5 µM |  |  |  | > 32 µg/mL | < 8 µg/mL | < 8 µg/mL | < 8 µg/mL | 8 to 32 µg/mL
CC(C)(N)C(=O)N1CCN(C(=O)Nc2ccn([C@H]3CC[C@H](CN4CCC5(CC4)CC(N)C5)CC3)c(=O)n2)CC1 [Compound 20, 4-(2-Amino-2-methylpropanoyl)-N-(1-(trans-4-((2-amino-7-azaspiro[3.5]nonan-7-yl)methyl)cyclohexyl)-2-oxo-1,2-dihydropyrimidin-4-yl)piperazine-1-carboxamide hydrochloride salt] |  | ≥ 1 µM |  |  |  |  |  |  |  | < 0.5 µM |  |  |  | 8 to 32 µg/mL | < 8 µg/mL | < 8 µg/mL | < 8 µg/mL | < 8 µg/mL
CCN(C[C@H]1CC[C@H](n2ccc(NC(=O)N3CCN(C(=O)C(C)(C)N)CC3)nc2=O)CC1)[C@H]1CC[C@H](N)CC1 [Compound 21, 4-(2-Amino-2-methylpropanoyl)-N-(1-(trans-4-(((trans-4-aminocyclohexyl)(ethyl)amino)methyl)cyclohexyl)-2-oxo-1,2-dihydropyrimidin-4-yl)piperazine-1-carboxamide hydrochloride salt] |  | ≥ 1 µM |  |  |  |  |  |  |  | < 0.5 µM |  |  |  | 8 to 32 µg/mL | < 8 µg/mL | < 8 µg/mL | < 8 µg/mL | 8 to 32 µg/mL
CC(C)(N)C(=O)N1CCN(C(=O)Nc2ccn(C3=CCC(CN4CCC5(CC4)CC(N)C5)CC3)c(=O)n2)CC1 (centres unmarked) [Compound 25, 4-(2-Amino-2-methylpropanoyl)-N-(1-(4-((2-amino-7-azaspiro[3.5]nonan-7-yl)methyl)cyclohexan-1-en-1-yl)-2-oxo-1,2-dihydropyrimidin-4-yl)piperazine-1-carboxamide hydrochloride salt] |  | ≥ 1 µM |  |  |  |  |  |  |  | < 0.5 µM |  |  |  | 8 to 32 µg/mL | < 8 µg/mL | < 8 µg/mL | < 8 µg/mL | < 8 µg/mL
CC(C)(N)C(=O)N1CCN(C(=O)Nc2ccn(C3=CCC(CN4CCC(CCN)CC4)CC3)c(=O)n2)CC1 (centres unmarked) [Compound 26, 4-(2-Amino-2-methylpropanoyl)-N-(1-(4-((4-(2-aminoethyl)piperidin-1-yl)methyl)cyclohex-1-en-1-yl)-2-oxo-1,2-dihydropyrimidin-4-yl)piperazine-1-carboxamide hydrochloride salt] |  | ≥ 1 µM |  |  |  |  |  |  |  | < 0.5 µM |  |  |  | > 32 µg/mL | < 8 µg/mL | < 8 µg/mL | < 8 µg/mL | > 32 µg/mL
